This assay concerns human neutrophils. As to the kind of experiment: Neutrophil migration assay. It counts as cell-based. Conditions: 3.2 μM peptide. As for the experimental part: Heparinized blood was collected from healthy human volunteers. Next, 10 ml of blood were mixed to 15 ml of PBS in a tube. Underneath the diluted blood, 10 ml of Ficoll (Pharmacy, LUMC) were added. The tube was spun at 1800 rpm for 20 minutes without brake. The supernatant was removed and 40 ml of erythrocyte lysis buffer (0.1 mM EDTA, 0.18 M NH4Cl, 10 mM KHCO3) were added to the pellet. This mixture was incubated at room temperature until erythrocyte lysis was evident. The tube was centrifuged at 1200 rpm for 10 minutes, the supernatant was discarded. The pellet was washed again with PBS the same way. The pellet was resuspended in RPMI 1640 medium and the cells were counted with a counting chamber. The cells were diluted to 2×10^6 cells/ml of RPMI 1640. The inserts with a 3.0 μm pore size in a 12-well plate (HTS transwell; Costar) were blocked with 400 μl of PBS with 0.1% w/v BSA for 10 minutes at room temperature after which the BSA solution was discarded. The 2×10^6 cells/ml suspension was diluted with RPMI to add 400 μl of a 2×10^5 cells/ml suspension to the inserts. […] In the lower compartment 1 ml of the chemoattractant was added. […] Results were expressed as the percentage of migrated neutrophils compared to the positive FMLP control, and corrected for the negative control.

The substance LL-37 came in with a migrated neutrophils of 5.6%.

The record behind these values is patent US12037372B2, “Bioactive peptides derived from snakes” (Universiteit Leiden, priority 2018, dated 2024).
